Test [1] deals with T1, human arginase I (ARG I) (Homo sapiens, UniProt P05089).
T1 sequence (P05089 1-322): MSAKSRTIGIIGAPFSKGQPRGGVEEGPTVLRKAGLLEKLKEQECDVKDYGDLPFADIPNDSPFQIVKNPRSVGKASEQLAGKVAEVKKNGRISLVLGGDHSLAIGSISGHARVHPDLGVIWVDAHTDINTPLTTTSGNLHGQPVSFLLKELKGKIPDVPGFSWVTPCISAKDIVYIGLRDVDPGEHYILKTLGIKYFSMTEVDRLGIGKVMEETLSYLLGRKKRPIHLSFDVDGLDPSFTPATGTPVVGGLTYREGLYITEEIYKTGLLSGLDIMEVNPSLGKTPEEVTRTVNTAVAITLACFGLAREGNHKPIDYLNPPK
Put plainly: Inhibition of arginase I, spectrophotometric urea assay at 530 nm. It is filed as biochemical. Particulars: Formula II compounds, Table 2-A; read-out: Potency (ARG I). An outline of the steps: (§1)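 IC50 was derived by regression of OD530 normalized to uninhibited-enzyme controls against log concentration. Urea from 60-min, 37 °C turnover of L-arginine with manganese sulfate was detected after acid o-phthaldialdehyde/primaquine quench and 10 min colour development. Arginase I and II came from 100 ng/ml stocks in pH 7.4 phosphate with ovalbumin.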

The target of test [2] is T2, arginase II (ARG II) (Homo sapiens, UniProt P78540).
T2 sequence (P78540 23-354): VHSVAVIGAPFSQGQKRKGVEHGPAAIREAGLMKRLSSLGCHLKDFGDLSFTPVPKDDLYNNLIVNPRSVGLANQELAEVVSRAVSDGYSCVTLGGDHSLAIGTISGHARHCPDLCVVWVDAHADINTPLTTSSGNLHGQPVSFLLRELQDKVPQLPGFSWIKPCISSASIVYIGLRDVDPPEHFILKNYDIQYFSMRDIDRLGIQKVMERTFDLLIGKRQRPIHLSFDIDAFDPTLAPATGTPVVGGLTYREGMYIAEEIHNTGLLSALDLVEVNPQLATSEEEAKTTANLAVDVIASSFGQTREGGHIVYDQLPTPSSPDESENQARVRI
Put plainly: Inhibition of arginase II, spectrophotometric urea assay at 530 nm. Particulars: Formula II compounds, Table 2-A; read-out: Potency (ARG). In kind it is biochemical. Put shortly: as §1

This note sets out measurements from US9994594B2, “Inhibitors of arginase and their therapeutic applications” (MARS, INCORPORATED, priority 2010, dated 2018).

Counter-ions that a name gives are not always drawn.

Regarding `NC(CCCCB(O)O)(C(=O)O)C1CCN(Cc2cccc3cccnc23)CC1` (stereo not shown) [Example 56-A, 2-amino-6-borono-2-(1-(quinolin-8-ylmethyl)piperidin-4-yl)hexanoic acid dihydrochloride], the IC50 in test [1] fell in the range of 0.1 to 250 nM; in test [2], 251 to 1000 nM.
As for `NC(CCCCB(O)O)(C(=O)O)C1CCN(Cc2ccccc2-c2cccnc2)CC1` (stereo not shown) [Example 57-A, 2-amino-6-borono-2-(1-(2-(pyridin-3-yl)benzyl)piperidin-4-yl)hexanoic acid dihydrochloride], the IC50 in test [1] fell in the range of 0.1 to 250 nM; in test [2], 251 to 1000 nM.
Turning to `COc1cccc(-c2ccccc2CN2CCC(C(N)(CCCCB(O)O)C(=O)O)CC2)c1` (stereo not shown) [Example 58-A, 2-amino-6-borono-2-(1-((3′-methoxybiphenyl-2-yl)methyl)piperidin-4-yl)hexanoic acid dihydrochloride], the IC50 in test [1] lay within 0.1 to 250 nM; in test [2] it was 251 to 1000 nM.
For the compound `NC(CCCCB(O)O)(C(=O)O)C1CCN(CCc2ccc(F)c(F)c2)CC1` (stereo not shown) [Example 59-A, 2-amino-6-borono-2-(1-(3,4-difluorophenethyl)piperidin-4-yl)hexanoic acid acid dihydrochloride], the IC50 in test [1] and in test [2] was 0.1 to 250 nM each time.
Turning to `NC(CCCCB(O)O)(C(=O)O)C1CCN(Cc2cccc3c2OCCC3)CC1` (stereo not shown) [Example 60-A, 2-amino-6-borono-2-(1-(chroman-8-ylmethyl)piperidin-4-yl)hexanoic acid dihydrochloride], the IC50 in test [1] and in test [2] was 0.1 to 250 nM in each case.
With `Cc1cc(CN2CCC(C(N)(CCCCB(O)O)C(=O)O)CC2)n(C)n1` (stereo not shown) [Example 62-A, 2-amino-6-borono-2-(1-((1,3-dimethyl-1H-pyrazol-5-yl)methyl)piperidin-4-yl)hexanoic acid dihydrochloride], the IC50 in test [1] and in test [2] was 251 to 1000 nM in each case.
`NC(CCCCB(O)O)(C(=O)O)C1CCN(CCCc2ccc(C(F)(F)F)cc2)CC1` (stereo not shown) [Example 63-A, 2-amino-6-borono-2-(1-(3-(4-(trifluoromethyl)phenyl)propyl)piperidin-4-yl)hexanoic acid acid dihydrochloride]: the IC50 in test [1] and in test [2] was 0.1 to 250 nM in each case.
For the compound `NC(CCCCB(O)O)(C(=O)O)C1CCN(Cc2ccc(Oc3ccc(Cl)c(Cl)c3)cc2)CC1` (stereo not shown) [Example 64-A, 2-amino-6-borono-2-(1-(4-(3,4-dichlorophenoxy)benzyl)piperidin-4-yl)hexanoic acid dihydrochloride], the IC50 in test [1] and in test [2] was 0.1 to 250 nM each time.
As to `NC(CCCCB(O)O)(C(=O)O)C1CCN(Cc2cccc(Cn3cccn3)c2)CC1` (stereo not shown) [Example 65-A, 2-(1-(3-((1H-pyrazol-1-yl)methyl)benzyl)piperidin-4-yl)-2-amino-6-boronohexanoic acid dihydrochloride], the IC50 in test [1] and in test [2] was 0.1 to 250 nM in each case.
Regarding `NC(CCCCB(O)O)(C(=O)O)C1CCN(CCCc2ccc(Cl)cc2Cl)CC1` (stereo not shown) [Example 66-A, 2-amino-6-borono-2-(1-(3-(2,4-dichlorophenyl)propyl)piperidin-4-yl)hexanoic acid dihydrochloride], the IC50 in test [1] and in test [2] was 0.1 to 250 nM in each case.
As for `NC(CCCCB(O)O)(C(=O)O)[C@@H]1CCN(Cc2ccccc2)C1` (stereo partly drawn) [Example 67-A, 2-amino-2-((R)-1-benzylpyrrolidin-3-yl)-6-boronohexanoic acid dihydrochloride], the IC50 in test [1] and in test [2] was 251 to 1000 nM in each case.
Regarding `NC(CCCCB(O)O)(C(=O)O)[C@H]1CCN(Cc2ccccc2)C1` (stereo partly drawn) [Example 68-A, 2-amino-2-((S)-1-benzylpyrrolidin-3-yl)-6-boronohexanoic acid dihydrochloride], the IC50 in test [1] and in test [2] was 251 to 1000 nM throughout.
As for `NC(CCCCB(O)O)(C(=O)O)[C@H]1CCCN(Cc2ccc(Cl)c(Cl)c2)C1` (stereo partly drawn) [Example 69-A, 2-amino-6-borono-2-((S)-1-(3,4-dichlorobenzyl)piperidin-3-yl)hexanoic acid dihydrochloride], the IC50 in test [1] lay in the range of 251 to 1000 nM; in test [2] it was 1000 to 2000 nM.
As to `NC(CCCCB(O)O)(C(=O)O)C1CCCNCC1` (stereo not shown) [Example 72-A, 2-amino-2-(azepan-4-yl)-6-boronohexanoic acid dihydrochloride], the IC50 lay in the range of 0.1 to 250 nM in test [1] and 251 to 1000 nM in test [2].
For the compound `NC(CCCCB(O)O)(C(=O)O)C1CCCN(Cc2ccc(Cl)c(Cl)c2)CC1` (stereo not shown) [Example 73-A, 2-amino-6-borono-2-(1-(3,4-dichlorobenzyl)azepan-4-yl)hexanoic acid dihydrochloride], the IC50 in test [1] was in the range of 0.1 to 250 nM; in test [2], 251 to 1000 nM.
Take `NC(CCCCB(O)O)(C(=O)O)[C@H]1C[C@@H](NCc2ccccc2)C1` (stereo partly drawn) [Example 74-A, cis-2-amino-2-(3-(benzylamino)cyclobutyl)-6-boronohexanoic acid dihydrochloride]: the IC50 in test [1] and in test [2] was 0.1 to 250 nM each time.
In the case of `NC(CCCCB(O)O)(C(=O)O)[C@H]1C[C@H](NCc2ccccc2)C1` (stereo partly drawn) [Example 75-A, trans-2-amino-2-(3-(benzylamino)cyclobutyl)-6-boronohexanoic acid dihydrochloride], the figures for the IC50 in test [1] and in test [2] were 0.1 to 250 nM and 251 to 1000 nM, respectively.
Regarding `NC(CCCCB(O)O)(C(=O)O)[C@H]1C[C@@H](NCc2ccc(OC(F)(F)F)cc2)C1` (stereo partly drawn) [Example 76-A, cis-2-amino-6-borono-2-(3-(4-(trifluoromethoxy)benzylamino)cyclobutyl)hexanoic acid dihydrochloride], the IC50 in test [1] and in test [2] was 0.1 to 250 nM in each case.
On to `NC(CCCCB(O)O)(C(=O)O)[C@H]1C[C@@H](NCc2ccc(-c3ccccc3)cc2)C1` (stereo partly drawn) [Example 77-A, cis-2-amino-2-(3-(biphenyl-4-ylmethylamino)cyclobutyl)-6-boronohexanoic acid dihydrochloride], for which the IC50 in test [1] and in test [2] was 0.1 to 250 nM in each case.
As for `NC(CCCCB(O)O)(C(=O)O)[C@H]1C[C@@H](NCc2cc3c(cc2Cl)OCO3)C1` (stereo partly drawn) [Example 78-A, cis-2-amino-6-borono-2-(3-((6-chlorobenzo[d][1,3]dioxol-5-yl)methylamino)cyclobutyl)hexanoic acid dihydrochloride], the IC50 in test [1] and in test [2] was 0.1 to 250 nM in each case.
On to `NC(CCCCB(O)O)(C(=O)O)[C@H]1C[C@@H](NCc2cccc3cccnc23)C1` (stereo partly drawn) [Example 79-A, cis-2-amino-6-borono-2-(3-(quinolin-8-ylmethylamino)cyclobutyl)hexanoic acid dihydrochloride], for which the IC50 in test [1] and in test [2] was 0.1 to 250 nM each time.
As to `NC(CCCCB(O)O)(C(=O)O)[C@H]1C[C@@H](NCc2cccc3ccccc23)C1` (stereo partly drawn) [Example 80-A, cis-2-amino-6-borono-2-(3-(naphthalen-1-ylmethylamino)cyclobutyl)hexanoic acid dihydrochloride], the IC50 in test [1] and in test [2] was 0.1 to 250 nM in each case.
For `NC(CCCCB(O)O)(C(=O)O)[C@H]1C[C@@H](N)C1` (stereo partly drawn) [Example 81-A, cis-2-amino-2-(3-aminocyclobutyl)-6-boronohexanoic acid dihydrochloride], the IC50 in test [1] and in test [2] was 0.1 to 250 nM in each case.
Turning to `NC(CCCCB(O)O)(C(=O)O)[C@H]1C[C@@H](NCc2ccc(Cl)cc2)C1` (stereo partly drawn) [Example 82-A, cis-2-amino-6-borono-2-(3-(4-chlorobenzylamino)cyclobutyl)hexanoic acid dihydrochloride], the IC50 in test [1] and in test [2] was 0.1 to 250 nM each time.
Consider `CC(C)CN[C@H]1C[C@@H](C(N)(CCCCB(O)O)C(=O)O)C1` (stereo partly drawn) [Example 83-A, cis-2-amino-6-borono-2-(3-(isobutylamino)cyclobutyl)hexanoic acid dihydrochloride], for which the IC50 in test [1] and in test [2] was 0.1 to 250 nM each time.
On to `NC(CCCCB(O)O)(C(=O)O)[C@H]1CC[C@@H](C(=O)c2ccc(Cl)cc2)CC1` (stereo partly drawn) [Example 84-A, cis-2-Amino-6-borono-2-[4-(4-Chlorobenzoyl)-cyclohexyl]hexanoic acid hydrochloride], for which the IC50 in test [1] and in test [2] was above 5000 nM in each case.
Regarding `NC(CCCCB(O)O)(C(=O)O)C1CCN(c2ccc(Cl)cn2)CC1` (stereo not shown) [Example 85-A, 2-amino-6-borono-2-(1-(5-chloropyridin-2-yl)piperidin-4-yl)hexanoic acid hydrochloride], the IC50 in test [1] lay in the range of 1000 to 2000 nM; in test [2], 251 to 1000 nM.
For the compound `NC(CCCCB(O)O)(C(=O)O)C1CCC(c2ccc(Cl)cc2)CC1` (stereo not shown) [Example 86-A, 2-amino-6-borono-2-(4-(4-chlorophenyl)cyclohexyl)hexanoic acid hydrochloride], the IC50 in test [1] and in test [2] was above 5000 nM throughout.
Consider `NC(CCCCB(O)O)(C(=O)O)C1CCN(Cc2ccccc2)CC1` (stereo not shown) [Example 87-A, 2-amino-2-(1-benzylpiperidin-4-yl)-6-boronohexanoic acid dihydrochloride], for which the IC50 in test [1] and in test [2] was 0.1 to 250 nM throughout.
